≈ marks a conversion by molar mass, not a printed value. Where two headings read alike, the source gives them in different places.
Tests used:
Aspergillus niger = assay: Broth microdilution antimicrobial assay, A. niger; format: cell-based
Method: (§1) Exactly 1.5 mg of sodium;10-oxido-7-oxophenoxazin-10-ium-3-olate was dissolved in 100 mL of distilled water, vortexed, filtered, sterilised, and stored at 4 °C for a maximum of 14 days before being applied as a growth indicator. 1000 μM stock solution of Schiff bases (1–9) was prepared in DMSO.
(§2) Fungi (Aspergillus niger, Candida albicans), Gram-positive bacteria (Staphylococcus aureus, Enterococcus faecalis), and Gram-negative bacteria (Salmonella typhi, Escherichia coli).
(§3) Colonies from a 24 h culture agar plate were collected with a loop and transferred to a tube containing lysogeny broth (LB). The various suspensions were incubated at 37 °C and the size adjusted to 1.5 × 10^6 CFU/mL [27].
(§4) The antimicrobial activity of Schiff bases (1–9), was evaluated using 96-well broth microdilution method as described by de Rapper et al. (2013) and Akhalwaya et al. (2018) with slight modifications. Columns 1–11 was filled 50 µL LB, followed by the addition of 50 µL of Schiff base to column 1. Thereafter, 50 µL of Schiff bases from column 1 was transferred by multichannel pipette to columns 2–10, resulting in 50 µL Schiff bases per well. Column 11 contained 100 µL of diluted standardised inoculum, while Column 12 contained 100 µL of LB as a control to monitor sterility. Then, 50 µL of the microorganism suspension was then added to columns 1–10 and the control column 11. The plates were incubated at 37 °C for 24 h, followed by the addition of 30 µL of growth indicator solution and further incubated for 2 h for the observation of colour change. On completion of incubation, the columns with blue indicator colour were reported as the MIC (µM) values. The columns with a concentration higher than the MIC value were plated on nutrient agar to determine the minimum bactericidal and fungicidal concentrations.

Enterococcus faecalis = assay: Broth microdilution antimicrobial assay, E. faecalis; format: cell-based; settings: for MBC: Enterococcus faecalis, read-out: MBC E. faecalis
Method: as §1, §2, §3, §4

α-amylase = assay: α-Amylase inhibitory activity; format: biochemical; settings: Means ×10^2 ± SD from at least three experiments
Method: The α-amylase inhibitory activity of Schiff bases (1–9) was evaluated by the method reported by Xiao et al. with slight modifications. Substrate solution is prepared by dissolving 1.0 g of starch in 50 mL of 0.4 M NaOH and heated at 100 °C for 5 min. The substrate solution was adjusted to a neutral pH by the addition of 0.1 M HCl, cooled on crushed ice and made to 100 mL in a standard volumetric flask with distilled water. […] Using a microplate, 40 μL substrate and 20 μL Schiff base solution were mixed, then preincubated at 37 °C for 3 min. Thereafter, 20 μL of 50 μg/mL α-amylase solution was dispensed into each well, and further incubated for 15 min. The reaction was terminated by the addition of 80 μL HCl (0.1 M); followed by 200 μL of 1 mM iodine solution, and the absorbances measured at 650 nm. Inhibitory activity was calculated from Equation (5):(5) α − amylase inhibition (%) = (A2 − A1/A4 − A3)100 where A1 is the absorbance of Schiff base, starch, and α-amylase solution after incubation, A2 is the absorbance of Schiff base and starch solution after incubation, A3 is the absorbance of starch and amylase solution after incubation, and A4 is the absorbance of a starch solution after incubation. Thereafter, the IC50 value was determined from the plot of % inhibition versus concentration.

α-glucosidase = assay: α-Glucosidase inhibitory activity; format: biochemical; settings: Means ×10^2 ± SD from at least three experiments
Method: The inhibitory activity of Schiff bases (1-9) against α-glucosidase was assessed by the method previously described by […] et al. […] Then, approximately 0.2 mL of Schiff base solution was mixed with 1.0 mL of 50 mM sodium phosphate buffer (pH 6.9) and 50 μL of α-glucosidase solution (2 U/mL). Thereafter, incubated at 37 °C for 10 min, followed by the addition of exactly 50 μL of 0.7 mM p-nitrophenyl-α-D-glucopyranoside solution in 50 mM sodium phosphate buffer (pH 6.9) and further incubated for 30 min at 37 °C. The reaction was terminated by the addition of 2.0 mL solution of 0.5 M Na2CO3. 0.3 mL aliquot of the above mixture was mixed with 4.7 mL of distilled water and the absorbance measured at 405 nm. […] (6) α - glucosidase inhibition (%) = (Ae - ASB/Ae)100 where Ae is the absorbance of the enzyme solution after incubation and ASB is the absorbance after incubation of Schiff bases solution. The assay was performed in triplicate.

[1] = DPPH radical scavenging activity; settings: absorbance at 517 nm, 30 min; mean ± SD (n = 3)
Method: (§5) The antioxidant activities of Schiff bases (1–9) were determined by DPPH, ABTS^+, H2O2, ferric reducing power assays, and compared with 3,4,5-trihydroxybenzoic acid (10), 5-(1,2-dihydroxyethyl)-3,4-dihydroxyfuran-2(5H)-one (11), and 2-(3,4-dihydroxyphenyl)-3,5,7-trihydroxy-4H-chromen-4-one (12) (as controls).
The scavenging activity of compounds (1–12) was evaluated by adding an ethanolic solution of DPPH (300 μL, 0.05 mM) and incubated for 30 min in the dark. After that, changes in the absorbance of the mixture were measured at 517 nm on a UV-Vis spectrophotometer. The percentage radical scavenging activities (%RSA) and half maximal inhibitory concentration (IC50) of the compounds were estimated from Equation (2) and by linear regression analysis, respectively. All studies were carried out in triplicate. (2) % RSA= 100⌊(Abs. of DPPH − Abs. of test compound)/(Abs. of DPPH)⌋

H2O2-scavenging activity = settings: absorbance at 230 nm; mean ± SD (n = 3)
Method: as §5
According to the methods of Ruch et al., the H2O2 scavenging activity of compounds (1–12) was evaluated. To 100 µL aliquot of the test compounds was added 0.4 mL of 50 mM phosphate buffer followed by 0.6 mL of 2 mM H2O2 solution prepared in 50 mM phosphate buffer (pH 6.8). The absorbance of the mixture was measured at 230 nm, thereafter, the %H2O2 scavenging activity (Equation (4)) and IC50 (μM) of the compounds 1–12 was determined. All analyses were carried out in triplicate. (4) % H2O2 − scavenging activity = 100⌊(Abs. of H2O2 − Abs. of test compound)/(Abs. of H2O2)⌋

Escherichia coli = assay: Broth microdilution antimicrobial assay, E. coli; format: cell-based; settings: for MBC: Escherichia coli, read-out: MBC E. coli
Method: as §1, §2, §3, §4

Staphylococcus aureus = assay: Broth microdilution antimicrobial assay, S. aureus; format: cell-based; settings: for MBC: Staphylococcus aureus, read-out: MBC S. aureus
Method: as §1, §2, §3, §4

[2] = ABTS radical cation decolourisation assay; settings: absorbance at 734 nm, 30 min; mean ± SD (n = 3)
Method: as §5
A mixture of ABTS (960.2 mg) and potassium persulphate (165.6 mg) was dissolved in 250 mL of distilled water to generate the blue-green ABTS^+ solution. The ABTS solution was stored away in the dark at ambient temperature for 24 h to generate sufficient ABTS radical cation (ABTS^+), then the absorbance was adjusted to 0.9547 with distilled water. Precisely 40 µL solution of the compounds were added to 3 mL ABTS^+ solution and incubated at 298 K for 30 min in the dark. Changes in concentration of ABTS^+ were measured at 734 nm on a spectrophotometer. The degree of ABTS^+ decolourisation was a template for evaluating the percentage proton-donating potential (%PDP) of the test compounds [24]; estimated from Equation (3). The IC50 (μM) of the compounds were determined by linear regression analysis, and all analyses were carried out in triplicate. (3) % PDP = 100⌊(Abs. of ABTS ^+ − Abs. of test compound)/(Abs. of ABTS^+)⌋

Salmonella typhi = assay: Broth microdilution antimicrobial assay, S. typhi; format: cell-based; settings: Salmonella enterica, TYPHI, read-out: MBC S. typhi
Method: as §1, §2, §3, §4

Candida albicans = assay: Broth microdilution antimicrobial assay, C. albicans; format: cell-based
Method: as §1, §2, §3, §4

[3] = Radical scavenging over DPPH, ABTS and H2O2 assays; settings: lower limit over the three radical assays; read-out: IC50 values for quenching the radicals (lowest over DPPH, ABTS, H2O2)
Method: as §5
The scavenging activity of compounds (1–12) was evaluated by adding an ethanolic solution of DPPH (300 μL, 0.05 mM) and incubated for 30 min in the dark. After that, changes in the absorbance of the mixture were measured at 517 nm on a UV-Vis spectrophotometer. […]
A mixture of ABTS (960.2 mg) and potassium persulphate (165.6 mg) was dissolved in 250 mL of distilled water to generate the blue-green ABTS^+ solution. The ABTS solution was stored away in the dark at ambient temperature for 24 h to generate sufficient ABTS radical cation (ABTS^+), then the absorbance was adjusted to 0.9547 with distilled water. […] Changes in concentration of ABTS^+ were measured at 734 nm on a spectrophotometer. […] The IC50 (μM) of the compounds were determined by linear regression analysis, and all analyses were carried out in triplicate. […]
According to the methods of Ruch et al., the H2O2 scavenging activity of compounds (1–12) was evaluated. […] The absorbance of the mixture was measured at 230 nm, thereafter, the %H2O2 scavenging activity (Equation (4)) and IC50 (μM) of the compounds 1–12 was determined. […]

[4] = system: Fungi (Aspergillus niger, Candida albicans); assay: Broth microdilution MIC, antifungal (fungus not specified); format: cell-based; settings: read-out: MIC (antifungal)
Method: as §1, §2, §3
The antimicrobial activity of Schiff bases (1–9), was evaluated using 96-well broth microdilution method as described by de Rapper et al. (2013) and Akhalwaya et al. (2018) with slight modifications. Columns 1–11 was filled 50 µL LB, followed by the addition of 50 µL of Schiff base to column 1. Thereafter, 50 µL of Schiff bases from column 1 was transferred by multichannel pipette to columns 2–10, resulting in 50 µL Schiff bases per well. Column 11 contained 100 µL of diluted standardised inoculum, while Column 12 contained 100 µL of LB as a control to monitor sterility. Then, 50 µL of the microorganism suspension was then added to columns 1–10 and the control column 11. […]

[5] = relative to o-hydroxy derivative (8)

Structure (SMILES)	MFC (Aspergillus niger; read-out: MFC A. niger)	MBC (Enterococcus faecalis)	IC50 (α-amylase)	IC50 (α-glucosidase)	IC50 [1]	IC50 (H2O2-scavenging activity)	MBC (Escherichia coli)	MBC (Staphylococcus aureus)	IC50 [2]	MBC (Salmonella typhi)	MFC (Candida albicans; read-out: MFC C. albicans)	IC50 [3]	melting point	MFC (Aspergillus niger; * = no fungicidal effect at the evaluated concentration, n = 3, read-out: MFC A. niger)	antibacterial activity (growth inhibition), E. faecalis (Enterococcus faecalis; [5])	MIC [4]	antibacterial activity (growth inhibition), E. coli (Escherichia coli; [5])	antibacterial activity (growth inhibition), S. aureus (Staphylococcus aureus; [5])	MFC (Candida albicans; 24 h, * = no fungicidal effect at the evaluated concentration, n = 3, read-out: MFC C. albicans)
O=[N+]([O-])c1ccc(C=Nc2cc(O)[nH]n2)cc1 [Compound 1, 3-(((4-nitrophenyl)methylidene)amino)-1H-pyrazol-5-ol]	> 4.31 µM	4.31 µM (≈ 1 µg/mL)	420 ± 36 µM	540 ± 44 µM	290 ± 9 µM	350 ± 5 µM	4.31 µM (≈ 1 µg/mL)	4.31 µM (≈ 1 µg/mL)	410 ± 6 µM	2.15 µM (≈ 0.499 µg/mL)	> 4.31 µM	≥ 290 µM	285 °C						
O=[N+]([O-])c1ccc(C=Nc2c(O)cc(S(=O)(=O)O)c3ccccc23)cc1 [Compound 7, 4-(4-nitrobenzylideneamino)-3-hydroxynaphthalene-1-sulphonic acid]		> 2.69 µM	730 ± 16 µM	961 ± 84 µM	200 µM	160 ± 90 µM	1.34 µM (≈ 0.499 µg/mL)	> 2.69 µM	50 ± 5 µM	> 2.69 µM		≥ 50 µM	200 °C	2.69 µM (≈ 1 µg/mL)	very potent	0.67 µM (≈ 0.249 µg/mL)	very potent	very potent	1.53 µM (≈ 0.57 µg/mL)

From PMC6162693, “Investigation into the Thermal Response and Pharmacological Activity of Substituted Schiff Bases on α-Amylase and α-Glucosidase” (Antioxidants, 2018)
